# Laboratory results: US11731961B2, “Phenyl propionic acid derivatives and uses thereof” (ILDONG PHARMACEUTICAL CO., LTD., priority 2016, dated 2023)
# Molecular target: T1, GPR40 (Homo sapiens, UniProt O14842)
# T1 construct: expressed in transfected cells
# Assay: Cell-Based Aequorin Assay (agonistic activity)
# Settings: 1 μM test compound; percentage of the activity of the reference agonist at its EC100 concentration
# Experimental: <In Vitro Assay 1> Cell-Based Aequorin Assay
# Recombinant cells grown 18 h prior to the test in media without antibiotics were detached by gentle flushing with PBS-EDTA (5 mM EDTA), recovered by centrifugation and resuspended in “assay buffer” (DMEM/HAM's F12 with HEPES+0.1% BSA fatty-acid free). Cells were incubated at room temperature for at least 4 h with Coelenterazine (Molecular Probes). Dose response curves with the reference compounds were performed before testing the compounds.
# For agonistic activity testing, 50 μL of cell suspension was injected on 96-well plates with plated 50 μL of test compounds or reference agonist. The resulting emission of light was recorded using the Hamamatsu Functional Drug Screening System 6000 (FDSS 6000).
# To standardize the emission of recorded light (determination of the “100% signal”) across plates and across different experiments, some of the wells contained the reference agonist at its EC100 obtained during the test validation. Agonistic activities of test compounds were expressed as a percentage of the activity of the reference agonist at its EC100 concentration.
# T1 sequence (O14842 whole entry): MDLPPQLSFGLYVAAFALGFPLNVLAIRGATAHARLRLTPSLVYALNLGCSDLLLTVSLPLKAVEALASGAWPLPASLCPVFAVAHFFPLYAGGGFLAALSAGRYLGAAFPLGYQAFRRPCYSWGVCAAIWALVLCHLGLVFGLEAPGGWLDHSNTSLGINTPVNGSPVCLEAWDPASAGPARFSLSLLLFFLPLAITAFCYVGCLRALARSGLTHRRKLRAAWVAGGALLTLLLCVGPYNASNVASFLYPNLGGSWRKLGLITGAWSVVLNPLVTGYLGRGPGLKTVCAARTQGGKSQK
row,Structure (SMILES),"Agonistic activity (%, 1 μM)"
1,"Cc1cc(OCCCS(C)(=O)=O)cc(C)c1-c1cccc(COc2ccc3c(c2)OC[C@H]3CC(=O)O)c1 [Comparative Example 1, reference compound]",+++ (+++: over 70)
2,"CC#C[C@@H](CC(=O)O)c1ccc(O[C@@H]2CCc3c(-c4ccc(OCCN5CCS(=O)(=O)CC5)nc4)ccc(F)c32)cc1 [Example 3, (S)-3-(4-(((R)-4-(6-(2-(1,1-Dioxidothiomorpholino)ethoxy)pyridin-3-yl)-7-fluoro-2,3-dihydro-1H-inden-1-yl)oxy)phenyl)hex-4-ynoic acid]",+ (+: under 40)
3,"CC#C[C@@H](CC(=O)O)c1ccc(O[C@@H]2CCc3c(-c4ccc(OC5CCS(=O)(=O)CC5)nc4)ccc(F)c32)cc1 [Example 1, (S)-3-(4-(((R)-4-(6-((1,1-Dioxidotetrahydro-2H-thiopyran-4-yl)oxy)pyridin-3-VI)-7-fluoro-2,3-dihydro-1H-inden-1-yl)oxy)phenyl)hex-4-ynoic acid]",+ (+: under 40)
4,"CC#C[C@@H](CC(=O)O)c1ccc(O[C@@H]2CCc3c(-c4ccc(OC5CCOCC5)nc4)ccc(F)c32)cc1 [Example 6, (S)-3-(4-(((R)-7-Fluoro-4-(6-((tetrahydro-2H-pyran-4-yl)oxy)pyridin-3-yl)-2,3-dihydro-1H-inden-1-yl)oxy)phenyl)hex-4-ynoic acid]",+++ (+++: over 70)
5,"CC#C[C@@H](CC(=O)O)c1ccc(O[C@@H]2CCc3c(-c4ccc(O[C@@H]5CCOC5)nc4)ccc(F)c32)cc1 [Example 5, (S)-3-(4-(((R)-7-Fluoro-4-(6-(((R)-tetrahydrofuran-3-yl)oxy)pyridin-3-yl)-2,3-dihydro-1H-inden-1-yl)oxy)phenyl)hex-4-ynoic acid]",+++ (+++: over 70)
6,"CC#C[C@@H](CC(=O)O)c1ccc(O[C@@H]2CCc3c(-c4ccc(O[C@H]5CCOC5)nc4)ccc(F)c32)cc1 [Example 7, (S)-3-(4-(((R)-7-Fluoro-4-(6-(((S)-tetrahydrofuran-3-yl)oxy)pyridin-3-yl)-2,3-dihydro-1H-inden-1-yl)oxy)phenyl)hex-4-ynoic acid]",+++ (+++: over 70)

# The next lines start with the values.
row,"Agonistic activity (%, 1 μM)",Structure (SMILES)
1,+++ (+++: over 70),"CC#C[C@@H](CC(=O)O)c1ccc(O[C@@H]2CCc3c(-c4cnc(OC5CCOCC5)c(C#N)c4)ccc(F)c32)cc1 [Example 19, (S)-3-(4-(((R)-4-(5-Cyano-6-((tetrahydro-2H-pyran-4-yl)oxy)pyridin-3-yl)-7-fluoro-2,3-dihydro-1H-inden-1-yl)oxy)phenyl)hex-4-ynoic acid]"
2,++ (++: 40-70),"CC#C[C@@H](CC(=O)O)c1ccc(O[C@@H]2CCc3c(-c4cncc(O[C@@H]5CCOC5)c4)ccc(F)c32)cc1 [Example 15, (S)-3-(4-(((R)-7-Fluoro-4-(5-(((R)-tetrahydrofuran-3-yl)oxy)pyridin-3-yl)-2,3-dihydro-1H-inden-1-yl)oxy)phenyl)hex-4-ynoic acid]"
3,+++ (+++: over 70),"CC#C[C@@H](CC(=O)O)c1ccc(O[C@@H]2CCc3c2ccc(F)c3-c2ccc(OC3CCOCC3)nc2)cc1 [Example 24, (S)-3-(4-(((R)-5-Fluoro-4-(6-((tetrahydro-2H-pyran-4-yl)oxy)pyridin-3-yl)-2,3-dihydro-1H-inden-1-yl)oxy)phenyl)hex-4-ynoic acid]"
4,+++ (+++: over 70),"CC#C[C@@H](CC(=O)O)c1ccc(O[C@@H]2CCc3c(-c4cnc(O[C@@H]5CCOC5)c(C#N)c4)ccc(F)c32)cc1 [Example 18, (S)-3-(4-(((R)-4-(5-Cyano-6-(((R)-tetrahydrofuran-3-yl)oxy)pyridin-3-yl)-7-fluoro-2,3-dihydro-1H-inden-1-yl)oxy)phenyl)hex-4-ynoic acid]"
5,+++ (+++: over 70),"CC#C[C@@H](CC(=O)O)c1ccc(O[C@@H]2CCc3c2ccc(C#N)c3-c2ccc(O[C@@H]3CCOC3)nc2)cc1 [Example 20, (S)-3-(4-(((R)-5-Cyano-4-(6-(((R)-tetrahydrofuran-3-yl)oxy)pyridin-3-yl)-2,3-dihydro-1H-inden-1-yl)oxy)phenyl)hex-4-ynoic acid]"
6,+++ (+++: over 70),"CC#C[C@@H](CC(=O)O)c1ccc(O[C@@H]2CCc3c(-c4cnc(OC5CCOCC5)c(Cl)c4)ccc(F)c32)cc1 [Example 17, (S)-3-(4-(((R)-4-(5-Chloro-6-((tetrahydro-2H-pyran-4-yl)oxy)pyridin-3-yl)-7-fluoro-2,3-dihydro-1H-inden-1-yl)oxy)phenyl)hex-4-ynoic acid]"
7,++ (++: 40-70),"CC#C[C@@H](CC(=O)O)c1ccc(O[C@@H]2CCc3c(-c4cncc(OC5CCOCC5)c4)ccc(F)c32)cc1 [Example 16, (S)-3-(4-(((R)-7-Fluoro-4-(5-((tetrahydro-2H-pyran-4-yl)oxy)pyridin-3-yl)-2,3-dihydro-1H-inden-1-yl)oxy)phenyl)hex-4-ynoic acid]"
8,++ (++: 40-70),"CC#C[C@@H](CC(=O)O)c1ccc(O[C@@H]2CCc3c(-c4cnc(O[C@@H]5CCOC5)cc4C)ccc(F)c32)cc1 [Example 8, (S)-3-(4-(((R)-7-Fluoro-4-(4-methyl-6-(((R)-tetrahydrofuran-3-yl)oxy)pyridin-3-yl)-2,3-dihydro-1H-inden-1-yl)oxy)phenyl)hex-4-ynoic acid]"
9,+++ (+++: over 70),"CC#C[C@@H](CC(=O)O)c1ccc(O[C@@H]2CCc3c2ccc(F)c3-c2ccc(O[C@@H]3CCOC3)nc2)cc1 [Example 21, (S)-3-(4-(((R)-5-Fluoro-4-(6-(((R)-tetrahydrofuran-3-yl)oxy)pyridin-3-yl)-2,3-dihydro-1H-inden-1-yl)oxy)phenyl)hex-4-ynoic acid]"
